Measurements as given in patent US20130316994A1, “Methods of Reducing Risk of Hepatobiliary Dysfunction During Rapid Weight Loss with METAP-2 Inhibitors” (Zafgen, Inc., priority 2010, published 2013).

Tested on: alkaline phosphatase
Test: Administration of MetAP2 inhibitor to obese patients: alkaline phosphatase
Assay type: in vivo, human
Details: 0.1, 0.3 or 0.9 mg/m^2 administered biweekly for 26 days, versus placebo, FIG. 1
Experimental: Patients treated with either a placebo, 0.1 mg/m^2 (approximately 0.2 mg per dose) of the MetAP2 inhibitor O-(4-dimethylaminoethoxycinnamoyl)fumagillol, 0.3 mg/m^2 (approximately 0.6 mg per dose), or 0.9 mg/m^2 of calculated body surface area (approximately 1.9 mg per dose) administered biweekly for 26 days. […] This reduction is indicative of a decrease in hepatic injury or hepatobiliary dysfunction, which is consistent with reduced biliary sludging and/or gallstone formation.

CO[C@@H]1[C@H](OC(=O)C=Cc2ccc(OCCN(C)C)cc2)CC[C@]2(CO2)[C@H]1[C@@]1(C)O[C@@H]1CC=C(C)C [O-(4-dimethylaminoethoxycinnamoyl)fumagillol]
reduction in alkaline phosphatase: significant reduction in alkaline phosphatase was observed with increasing MetAP2 inhibitor dosage
